From US20160039852A1, “THERAPEUTIC USES OF BISPHOSPHONATES” (THE UNIVERSITY OF SHEFFIELD, priority 2013, published 2016)

Test system: unprenylated RAP1A
Experiment: Unprenylation (unprenylated RAP1A) in murine tissues following treatment
Type: in vivo, C57BL6/J mice
Details: Zol 125 μg/kg, i.p., 3 days, n=6 mice/group
Description: For in vivo murine experiments C57BL6/J mice aged 8-10 weeks were used. All animals were housed in a conventional, non- specific pathogen free (SPF), mouse facility at the Medical School, University of Sheffield. Mice were fed on a commercially prepared pelleted diet and given water ad libitum. A minimum of 6 mice were used in each experimental group. Depending on the experimental groups, mice were injected either with Zoledronate(single dose, 125 μg/kg) or PBS ip, and sacrificed for tissue collection 3 days after the injection. Snap-frozen tissues were lysed for protein extraction using a tissue homogenizer and mammalian cell lysis buffer containing phosphatase and protease inhibitors. Protein lysates were run on 12% Tris-glycine gels and assessed for unprenylated RAP1A detected by sc1482 antibody RAP1A (Santacruz, USA) at 1:1000 dilution and GAPDH at 1:10000 dilution as described earlier.

For `O=P(O)(O)C(O)(Cn1ccnc1)P(=O)(O)O` [Zoledronate], the “levels of Rap1A unprenylation in murine tissues” value was “increased levels of Rap1A unprenylation”.
